Measured values published in US4900672A, “Method for preservation of nitrile hydration activity” (Nitto Kagaku Kogyo Kabushiki Kaisha, priority 1986, dated 1990).
Read-outs that look alike come from different tables or passages of the source.

Biological target: T1, nitrile hydratase (Pseudomonas chlororaphis, UniProt P27763+P27764)
T1 sequence (P27764 1-200): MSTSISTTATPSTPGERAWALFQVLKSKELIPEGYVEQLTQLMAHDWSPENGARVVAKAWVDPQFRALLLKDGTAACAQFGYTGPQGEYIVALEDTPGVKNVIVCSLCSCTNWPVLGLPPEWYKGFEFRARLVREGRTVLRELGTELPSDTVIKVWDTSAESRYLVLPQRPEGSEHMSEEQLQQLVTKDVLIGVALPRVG
T1 sequence (P27763 1-220): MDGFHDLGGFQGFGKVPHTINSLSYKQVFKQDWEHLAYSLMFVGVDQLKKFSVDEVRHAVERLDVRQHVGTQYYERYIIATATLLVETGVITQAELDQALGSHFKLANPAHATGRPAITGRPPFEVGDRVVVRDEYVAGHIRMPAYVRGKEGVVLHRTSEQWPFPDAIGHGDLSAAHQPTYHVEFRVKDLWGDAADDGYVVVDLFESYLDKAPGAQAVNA
Test: Preservation of nitrile hydration activity of washed cell suspension left standing ice-cooled with stabilizer
Type: cell-based, Pseudomonas chlororaphis B23 (FERM BP-187)
Conditions: for activity at 10 mg: 120 h; for activity at 25 mg: 96 h; for remaining activity at 10 µg/mL: stabilizer concentration 0.01 g/l, no stabilizer (pH 6.5): 52

[1] = Table 3, 10 mg organic acid in 5 ml cell suspension, pH 6.0, left standing 5 days ice-cooled, no stabilizer: 43, read-out: % Residual Activity
[2] = pH 6.5, read-out: % Residual Activity
[3] = Table 4, pH 5.0, 25 mg stabilizer in 5 ml, 4 days ice-cooled, no stabilizer: 2, read-out: % Residual Activity
[4] = Table 4, pH 6.0, 25 mg stabilizer in 5 ml, 4 days ice-cooled, no stabilizer: 41, read-out: % Residual Activity
[5] = Table 4, pH 6.5, 25 mg stabilizer in 5 ml, 4 days ice-cooled, no stabilizer: 52, read-out: % Residual Activity
[6] = Table 4, pH 8.0, 25 mg stabilizer in 5 ml, 4 days ice-cooled, no stabilizer: 26, read-out: % Residual Activity
[7] = Table 5, pH 6.0, 3 days ice-cooled, read-out: % Residual Activity
[8] = Table 1, 10 mg nitrile in 5 ml cell suspension, pH 6.5, left standing 5 days ice-cooled, no stabilizer: 42, read-out: % Residual Activity
[9] = Table 2, 10 mg amide in 5 ml cell suspension, pH 6.5, left standing 5 days ice-cooled, no stabilizer: 42, read-out: % Residual Activity
[10] = pH 6, read-out: % Residual Activity

## O=C(O)CC(O)(CC(=O)O)C(=O)O [Citric acid]
[1]
  activity at 10 mg: 77%

## O=C(O)c1ccccc1 [Benzoic acid]
[1]
  activity at 10 mg: 68%

## CC#N [Acetonitrile]
[2]
  activity at 10 mg: 71%

## CC(C)C(N)=O [Isobutyramide]
pH 7, read-out: % Residual Activity
  activity at 25 mg: 78%
[3]
  activity at 25 mg: 3%
Table 4, pH 5.5, 25 mg stabilizer in 5 ml, 4 days ice-cooled, no stabilizer: 32, read-out: % Residual Activity
  activity at 25 mg: 100%
[4]
  activity at 25 mg: 100%
[5]
  activity at 25 mg: 87%
[6]
  activity at 25 mg: 52%
[2]
  activity at 10 mg: 99%
[7]
  remaining activity at 10 µg/mL: 82%
Table 5, stabilizer concentration 0.1 g/l, pH 6.0, 3 days ice-cooled, read-out: % Residual Activity
  remaining activity at 100 µg/mL: 88%
Table 5, stabilizer concentration 1.0 g/l, pH 6.0, 3 days ice-cooled, read-out: % Residual Activity
  remaining activity at 1000 µg/mL: 100%
Table 5, stabilizer concentration 5.0 g/l, pH 6.0, 3 days ice-cooled, read-out: % Residual Activity
  remaining activity at 5000 µg/mL: 100%
Table 5, stabilizer concentration 20 g/l, pH 6.0, 3 days ice-cooled, read-out: % Residual Activity
  remaining activity at 20000 µg/mL: 100%
Table 5, stabilizer concentration 50 g/l, pH 6.0, 3 days ice-cooled, read-out: % Residual Activity
  remaining activity at 50000 µg/mL: 90%

## N#CCCC#N [Succiononitrile]
[8]
  activity at 10 mg: 81%

## NC(=O)c1ccccc1 [Benzamide]
[9]
  activity at 10 mg: 65%

## O=CO [Formic Acid]
[10]
  activity at 10 mg: 83%

## C=CC(=O)O [Acrylic acid]
[1]
  activity at 10 mg: 70%

## CC(C)C#N [Isobutyronitrile]
pH 5.5, read-out: % Residual Activity
  activity at 25 mg: 98%
[3]
  activity at 25 mg: 5%
[4]
  activity at 25 mg: 97%
[5]
  activity at 25 mg: 85%
Table 4, pH 7.0, 25 mg stabilizer in 5 ml, 4 days ice-cooled, no stabilizer: 43, read-out: % Residual Activity
  activity at 25 mg: 80%
[6]
  activity at 25 mg: 53%
[8]
  activity at 10 mg: 95%
[7]
  remaining activity at 10 µg/mL: 78%
[10]
  remaining activity at 100 µg/mL: 85%
  remaining activity at 1000 µg/mL: 98%
  remaining activity at 5000 µg/mL: 100%
  remaining activity at 20000 µg/mL: 91%

## N#CCCCl [β-Chloropropionitrile]
[8]
  activity at 10 mg: 80%

## CC(O)C#N (stereo not shown) [Lactonitrile]
[8]
  activity at 10 mg: 73%

## C=CC#N [Acrylonitrile]
[8]
  activity at 10 mg: 71%

## CCCC#N [n-Butyronitrile]
[8]
  activity at 10 mg: 88%

## CCC(=O)O [Propionic acid]
[10]
  activity at 10 mg: 93%

## NC(=O)CCCl [β-Chloropropionamide]
[9]
  activity at 10 mg: 71%

## CCC#N [Propionitrile]
[8]
  activity at 10 mg: 90%

## NCCC(=O)O [β-Aminopropionic acid]
[10]
  activity at 10 mg: 71%

## CC(O)C(N)=O (stereo not shown) [Lactamide]
[9]
  activity at 10 mg: 70%

## N#CCCN [β-Aminopropionitrile]
[8]
  activity at 10 mg: 70%

## CCCCC(=O)O [Valeric acid]
[10]
  activity at 10 mg: 84%

## CC(=O)O [Acetic acid]
[10]
  activity at 10 mg: 77%

## C=CC(N)=O [Acrylamide]
[9]
  activity at 10 mg: 73%

## CCCC(N)=O [n-Butyramide]
[9]
  activity at 10 mg: 89%

## N#CCC(=O)O [Cyanoacetic acid]
[8]
  activity at 10 mg: 69%

## NC(=O)CC(N)=O [Malondiamide]
[9]
  activity at 10 mg: 66%

## N#CCCCCC#N [Adiponitrile]
[8]
  activity at 10 mg: 84%

## NC(=O)c1cccnc1 [Nicotinamide]
[9]
  activity at 10 mg: 59%

## NC(=O)CCC(N)=O [Succindiamide]
[9]
  activity at 10 mg: 68%

## N#Cc1ccccc1 [Benzonitrile]
[8]
  activity at 10 mg: 70%
